Experimental data reported in patent US20080090805A1, “CB-1 MODULATING COMPOUNDS AND THEIR USE” (ACADIA PHARMACEUTICALS INC., priority 2005, published 2008).
Read-outs that look alike come from different tables or passages of the source. Blank lines part the entries; values can stand above or below the compound they belong to.

Biological target: native CB1 receptors (Rattus norvegicus, UniProt P20272)
Experiment: CB1 receptor rat binding assay ([3H]SR141716A, rat brain membranes)
Conditions: rat brain membranes
[1] = [3H]SR141716A, read-out: Binding rat pKi (converted)
[2] = 3 nM [3H]SR141716A, read-out: Rat Brain pKi (converted)

native CB1 receptors, sequence (P20272 whole entry): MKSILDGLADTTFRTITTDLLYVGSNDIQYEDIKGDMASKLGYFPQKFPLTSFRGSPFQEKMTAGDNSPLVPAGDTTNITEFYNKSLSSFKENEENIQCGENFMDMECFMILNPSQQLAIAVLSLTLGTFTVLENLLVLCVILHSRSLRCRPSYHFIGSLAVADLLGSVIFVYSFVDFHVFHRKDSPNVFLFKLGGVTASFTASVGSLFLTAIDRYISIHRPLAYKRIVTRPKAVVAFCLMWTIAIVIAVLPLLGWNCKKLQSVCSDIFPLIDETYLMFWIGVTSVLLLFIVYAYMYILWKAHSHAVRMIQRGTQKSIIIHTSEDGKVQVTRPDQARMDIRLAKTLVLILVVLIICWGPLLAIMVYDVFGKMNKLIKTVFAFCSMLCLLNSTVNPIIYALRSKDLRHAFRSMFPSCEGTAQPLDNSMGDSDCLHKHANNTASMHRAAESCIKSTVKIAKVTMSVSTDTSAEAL

Ki [1]: 0.0316 µM
SMILES: O=C(NCc1ccccc1Br)c1ccc2c(c1)N=C(c1ccc(Cl)cc1)c1ccccc1S2 [drawing 1388]

Ki [1]: 0.00251 µM
SMILES: CC(CNC(=O)c1ccc2c(c1)N=C(c1cccc(Cl)c1)c1ccccc1S2)c1ccccc1 (centres unmarked) [drawing 1304]

Binding rat Inh % ([3H]SR141716A): 108% | Ki [1]: 0.00794 µM
SMILES: CCCCNC(=O)c1ccc2c(c1)N=C(c1cccc(Cl)c1)c1cc(F)ccc1S2 [drawing 1447]

Binding rat Inh % ([3H]SR141716A): −43% | Ki [1]: 0.0631 µM
SMILES: CCOC(=O)c1ccc(C2=Nc3cc(C(=O)NCc4ccccn4)ccc3Sc3ccccc32)cc1 [drawing 1476]

Ki [1]: 0.0398 µM
SMILES: CCCC1=Nc2cc(C(=O)NCc3ccccc3Cl)ccc2Sc2ccccc21 [drawing 1427]

Binding rat Inh % ([3H]SR141716A): 71% | Ki [1]: 0.0794 µM
SMILES: CCOCCNC(=O)c1ccc2c(c1)N=C(c1ccc(Cl)cc1)c1ccccc1S2 [drawing 1504]

Binding rat Inh % ([3H]SR141716A): 77% | Ki [1]: 0.0794 µM
SMILES: CC(C)NC(=O)c1ccc2c(c1)N=C(c1cccc(F)c1)c1ccccc1S2 [drawing 1528]

Binding rat Inh % ([3H]SR141716A): 72% | Ki [1]: 0.0316 µM
SMILES: CC(C)NC(=O)c1ccc2c(c1)N=C(c1ccc(Cl)cc1F)c1ccccc1S2 [drawing 1363]

Ki [1]: 0.0631 µM
SMILES: O=C(NCCc1ccccc1)c1ccc2c(c1)N=C(N1CCCCC1)c1ccccc1S2 [drawing 1470]

Binding rat Inh % ([3H]SR141716A): 85% | Ki [1]: 0.0398 µM
SMILES: O=C(NCCc1ccccn1)c1ccc2c(c1)N=C(c1ccc(F)cc1)c1ccccc1S2 [drawing 1411]

Ki [1]: 0.0316 µM
SMILES: O=C(NCc1ccccc1)c1ccc2c(c1)N=C(c1ccccc1F)c1ccccc1S2 [drawing 1365]

Binding rat Inh % ([3H]SR141716A): 102% | Ki [1]: 0.00631 µM
SMILES: O=C(NCc1cccnc1)c1ccc2c(c1)N=C(c1ccc(Cl)c(Cl)c1)c1ccccc1S2 [drawing 1401]

Ki [1]: 0.0631 µM
SMILES: CCC1=Nc2cc(C(=O)NCCc3ccc(OC)c(OC)c3)ccc2Sc2ccccc21

Binding rat Inh % ([3H]SR141716A): 88% | Ki [1]: 0.001 µM
SMILES: O=C(NCCC(F)(F)F)c1ccc2c(c1)N=C(c1cccc(Cl)c1)c1ccccc1S2 [drawing 1250]

Ki [1]: 0.00501 µM
SMILES: O=C(NCCc1ccc(Cl)cc1)c1ccc2c(c1)N=C(c1ccc(Cl)cc1)c1ccccc1S2 [drawing 1376]

Binding rat Inh % ([3H]SR141716A): 87% | Ki [1]: 0.01 µM
SMILES: CC(C)CNC(=O)c1ccc2c(c1)N=C(c1cccc(F)c1)c1ccccc1S2 [drawing 1490]

Binding rat Inh % ([3H]SR141716A): 103% | Ki [1]: 0.00501 µM
SMILES: O=C(NCc1ccco1)c1ccc2c(c1)N=C(c1ccc(F)cc1)c1ccccc1S2 [drawing 1370]

Binding rat Inh % ([3H]SR141716A): 73% | Ki [1]: 0.1 µM
SMILES: O=C(NNC(=O)c1ccc2c(c1)N=C(c1cccc(Br)c1)c1ccccc1S2)c1ccccc1

Binding rat Inh % ([3H]SR141716A): 63% | Ki [1]: 0.0501 µM
SMILES: CCOCCNC(=O)c1ccc2c(c1)N=C(c1ccc(F)cc1)c1ccccc1S2 [drawing 1446]

Ki [1]: 0.01 µM
SMILES: O=C(NCc1cccc(Cl)c1)c1ccc2c(c1)N=C(N1CCC(F)CC1)c1ccccc1S2 [drawing 1523]

Binding rat Inh % ([3H]SR141716A): 60% | Ki [1]: 0.00631 µM
SMILES: O=C(NN1CCCCC1)c1ccc2c(c1)N=C(c1ccc(Cl)cc1)c1ccccc1S2 [drawing 1424]

Binding rat Inh % ([3H]SR141716A): 64% | Ki [1]: 0.1 µM
SMILES: CCOCCNC(=O)c1ccc2c(c1)N=C(c1ccc(C#N)cc1)c1ccccc1S2 [drawing 1543]

Binding rat Inh % ([3H]SR141716A): 90% | Ki [1]: 0.00794 µM
SMILES: COc1cccc(C2=Nc3cc(C(=O)NCc4ccc(C)o4)ccc3Sc3ccccc32)n1 [drawing 1458]

Binding rat Inh % ([3H]SR141716A): 65% | Ki [1]: 0.1 µM
SMILES: N#Cc1ccc(C2=Nc3cc(C(=O)NNCc4ccccc4)ccc3Sc3ccccc32)cc1 [drawing 1538]

Binding rat Inh % ([3H]SR141716A): 90% | Ki [1]: 0.0316 µM
SMILES: CC(C)NC(=O)c1ccc2c(c1)N=C(c1ccc(Cl)cc1)c1ccccc1S2 [drawing 1372]

Ki [1]: 0.0316 µM
SMILES: CCCC1=Nc2cc(C(=O)NCCCc3ccccc3)ccc2Sc2ccccc21 [drawing 1357]

Ki [1]: 0.02 µM
SMILES: O=C(NCc1ccc(F)cc1)c1ccc2c(c1)N=C(c1ccc(Cl)cc1)c1ccccc1[S+]2[O-] (centres unmarked) [drawing 1301]

Ki [1]: 0.1 µM
SMILES: O=C(NCc1ccc(Cl)cc1Cl)c1ccc2c(c1)N=C(c1ccccc1F)c1ccccc1S2 [drawing 1551]

Ki [1]: 0.00316 µM
SMILES: O=C(NCCCc1ccccc1)c1ccc2c(c1)N=C(c1cccc(Cl)c1)c1ccccc1S2 [drawing 1327]

Binding rat Inh % ([3H]SR141716A): 112% | Ki [1]: 0.001 µM
SMILES: O=C(NC1CCC(F)(F)CC1)c1ccc2c(c1)N=C(c1cccc(F)c1)c1ccccc1S2 [drawing 1249]

Ki [2]: 0.251 µM
SMILES: Cc1ccc(N2CCN(C(=O)c3ccc4c(c3)N=C(Cl)c3ccccc3S4)CC2)c(C)c1 [Example 12]

Ki [1]: 0.00631 µM
SMILES: O=C(NCc1ccccc1Cl)c1ccc2c(c1)N=C(c1cccc(Cl)c1)c1ccccc1S2 [drawing 1415]

Binding rat Inh % ([3H]SR141716A): 106% | Ki [1]: 0.00316 µM
SMILES: Cc1csc(CNC(=O)c2ccc3c(c2)N=C(c2ccsc2)c2ccccc2S3)c1 [drawing 1313]

Binding rat Inh % ([3H]SR141716A): 97% | Ki [1]: 0.000794 µM
SMILES: O=C(NCCCC(F)(F)F)c1ccc2c(c1)N=C(c1ccsc1)c1ccccc1S2 [drawing 1233]

Binding rat Inh % ([3H]SR141716A): 76% | Ki [1]: 0.0794 µM
SMILES: O=C(NCc1ccncc1)c1ccc2c(c1)N=C(c1cccc(Br)c1)c1ccccc1S2 [drawing 1511]

Binding rat Inh % ([3H]SR141716A): 94% | Ki [1]: 0.002 µM
SMILES: O=C(NCc1cccs1)c1ccc2c(c1)N=C(c1ccc(Cl)cc1)c1ccccc1S2 [drawing 1279]

Binding rat Inh % ([3H]SR141716A): 71% | Ki [1]: 0.0501 µM
SMILES: O=C(NCc1ccccn1)c1ccc2c(c1)N=C(c1ccc(Br)cc1)c1ccccc1S2 [drawing 1469]

Binding rat Inh % ([3H]SR141716A): 97% | Ki [1]: 0.0158 µM
SMILES: CC(C)CNC(=O)c1ccc2c(c1)N=C(c1ccc(F)cn1)c1ccccc1S2 [drawing 1254]

Binding rat Inh % ([3H]SR141716A): 97% | Ki [1]: 0.0501 µM
SMILES: O=C(NNCC(F)(F)F)c1ccc2c(c1)N=C(c1cccc(Cl)c1)c1ccccc1S2 [drawing 1467]

Binding rat Inh % ([3H]SR141716A): 96% | Ki [1]: 0.01 µM
SMILES: CCCCNC(=O)c1ccc2c(c1)N=C(c1ccc(Cl)s1)c1cc(F)ccc1S2 [drawing 1515]

Binding rat Inh % ([3H]SR141716A): 94% | Ki [1]: 0.00126 µM
SMILES: O=C(NC1CCC(F)(F)CC1)c1ccc2c(c1)N=C(c1ccc(F)cc1)c1ccccc1S2 [drawing 1258]

Continued, compound first:

SMILES: Cc1ccsc1C1=Nc2cc(C(=O)NCc3ccco3)ccc2Sc2ccccc21 [drawing 1277]
Binding rat Inh % ([3H]SR141716A): 85% | Ki [1]: 0.02 µM

SMILES: O=C(NC1CCC(F)(F)CC1)c1ccc2c(c1)N=C(c1ccc(Cl)cc1)c1ccccc1S2
Binding rat Inh % ([3H]SR141716A): 90% | Ki [1]: 0.00251 µM

SMILES: O=C(NCc1ccccc1Cl)c1ccc2c(c1)N=C(c1ccc(Cl)cc1)c1ccccc1S2 [drawing 1341]
Ki [1]: 0.0251 µM

SMILES: Cc1ccc(CNC(=O)c2ccc3c(c2)N=C(c2ccc(Cl)s2)c2ccccc2S3)o1 [drawing 1223]
Binding rat Inh % ([3H]SR141716A): 106% | Ki [1]: 0.000501 µM

SMILES: COCCNC(=O)c1ccc2c(c1)N=C(c1cccc(F)c1)c1ccccc1S2 [drawing 1468]
Binding rat Inh % ([3H]SR141716A): 86% | Ki [1]: 0.0501 µM

SMILES: O=C(NCc1ccccc1)c1ccc2c(c1)N=C(c1ccccc1)c1ccccc1S2 [drawing 1219]
Ki [1]: 0.0158 µM

SMILES: CCCCNC(=O)c1ccc2c(c1)N=C(c1cccc(Cl)c1)c1ccccc1S2 [drawing 1479]
Ki [1]: 0.00794 µM

SMILES: O=C(NCCC(F)(F)F)c1ccc2c(c1)N=C(c1ccc(Cl)cc1)c1ccccc1S2 [drawing 1360]
Binding rat Inh % ([3H]SR141716A): 99% | Ki [1]: 0.00398 µM

SMILES: O=C(NCCC(F)(F)F)c1ccc2c(c1)N=C(c1ccsc1)c1ccccc1S2 [drawing 1442]
Binding rat Inh % ([3H]SR141716A): 88% | Ki [1]: 0.00794 µM

SMILES: O=C(NCCc1cccnc1)c1ccc2c(c1)N=C(c1cccc(F)c1)c1ccccc1S2 [drawing 1333]
Binding rat Inh % ([3H]SR141716A): 94% | Ki [1]: 0.0251 µM

SMILES: CC(NC(=O)c1ccc2c(c1)N=C(c1ccccc1)c1ccccc1S2)c1ccccc1 (centres unmarked) [drawing 1379]
Ki [1]: 0.0316 µM

SMILES: CC(C)CNC(=O)c1ccc2c(c1)N=C(c1ccc(Cl)s1)c1ccccc1S2 [drawing 1201]
Binding rat pKi ([3H]SR141716A): 8.6

SMILES: O=C(NCc1ccccc1Cl)c1ccc2c(c1)N=C(C1CCCCC1)c1ccccc1S2 [drawing 1491]
Ki [1]: 0.01 µM

SMILES: O=C(NN1CCCCC1)c1ccc2c(c1)N=C(c1ccc(F)c(Cl)c1)c1ccccc1S2 [drawing 1321]
Binding rat Inh % ([3H]SR141716A): 100% | Ki [1]: 0.00316 µM

SMILES: Cc1ccc(N2CCN(C(=O)c3ccc4c(c3)N=C(c3ccc(Cl)cc3)c3ccccc3S4)CC2)c(C)c1 [Example 19]
Ki [2]: 0.0501 µM

SMILES: O=C(NCc1ccc(Cl)cc1Cl)c1ccc2c(c1)N=C(c1ccc(F)cc1)c1ccccc1S2 [drawing 1211]
Ki [1]: 0.0126 µM

SMILES: O=C(NCc1ccccc1)c1ccc2c(c1)N=C(c1ccc(Cl)cc1)c1ccccc1S2 [drawing 1368]
Ki [1]: 0.00501 µM

SMILES: CC(C)NC(=O)c1ccc2c(c1)N=C(c1cccc(Cl)c1)c1ccccc1S2 [drawing 1269]
Binding rat Inh % ([3H]SR141716A): 83% | Ki [1]: 0.02 µM

SMILES: CC(NC(=O)c1ccc2c(c1)N=C(c1cccc(Cl)c1)c1ccccc1S2)c1ccccc1 (centres unmarked) [drawing 1465]
Ki [1]: 0.00794 µM

SMILES: CCCCNC(=O)c1ccc2c(c1)N=C(c1ccc(Br)cn1)c1ccccc1S2 [drawing 1378]
Binding rat Inh % ([3H]SR141716A): 83% | Ki [1]: 0.00501 µM

SMILES: CN1c2ccc(C(=O)NCc3ccc(F)cc3)cc2N=C(c2ccc(F)cc2)c2ccccc21 [drawing 1496]
Binding rat Inh % ([3H]SR141716A): 83% | Ki [1]: 0.0631 µM

SMILES: CC(C)CNC(=O)c1ccc2c(c1)N=C(c1cccc(Cl)c1)c1ccccc1S2 [drawing 1361]
Binding rat Inh % ([3H]SR141716A): 99% | Ki [1]: 0.00398 µM

SMILES: CCCCNC(=O)c1ccc2c(c1)N=C(c1ccc(Cl)s1)c1ccc(F)cc1S2 [drawing 1267]
Binding rat Inh % ([3H]SR141716A): 93% | Ki [1]: 0.02 µM

SMILES: CCOCCNC(=O)c1ccc2c(c1)N=C(c1cccc(Br)c1)c1ccccc1S2 [drawing 1323]
Binding rat Inh % ([3H]SR141716A): 76% | Ki [1]: 0.0251 µM

SMILES: O=C(NCCc1ccc(Cl)cc1)c1ccc2c(c1)N=C(c1cccc(Cl)c1)c1ccccc1S2 [drawing 1281]
Ki [1]: 0.002 µM

SMILES: O=C(NCc1ccc(F)cc1)c1ccc2c(c1)N=C(C1CCCCC1)c1ccccc1S2(=O)=O [drawing 1326]
Ki [1]: 0.0251 µM

SMILES: CCCCNC(=O)c1ccc2c(c1)N=C(c1ccccc1F)c1ccccc1S2 [drawing 1348]
Ki [1]: 0.0251 µM

SMILES: O=C(NC1CCCCC1)c1ccc2c(c1)N=C(c1ccccn1)c1ccccc1S2 [drawing 1537]
Binding rat Inh % ([3H]SR141716A): 77% | Ki [1]: 0.1 µM

SMILES: Cc1csc(CNC(=O)c2ccc3c(c2)N=C(c2sccc2C)c2ccccc2S3)c1 [drawing 1255]
Binding rat Inh % ([3H]SR141716A): 93% | Ki [1]: 0.001 µM
